pIC50: −log10 of the molar value.
Columns and labels:
[1] = target: Human recombinant Acetyl-CoA Carboxylase 2 (ACC2) (Homo sapiens, UniProt O00763); test: Assay X: ACC2 inhibition, inorganic phosphate (malachite green); format: biochemical; settings: Assay X: 37° C., 1.5 h, 5 min pre-incubation
Method: (§1) Human recombinant Acetyl-CoA Carboxylase 1 and Acetyl-CoA Carboxylase 2 (ACC1 and ACC2) were assayed by determining the amount of inorganic phosphate (Pi) generated. Pre-incubation of 15 μL enzyme together with 0.75 μL DMSO+/−compound for 5 min was done before the reaction was initiated by the addition of 10 μL substrate. […] After 1.5 h the reaction was stopped by addition of 74 μL of water followed by extensive mixing, split and transfer of 2×40 μL to a read-plate encompassing 30 μL distilled H2O per well (n=2→n=4). Colour reaction was initiated by addition of 30 μL malachite green reagent per well and allowed 15 min before absorbance reading of the plates at 660 nm. The malachite green reagent was prepared by mixing 16.4 mL ammonium molybdate solution (7.5%), 1.64 mL Tween (11%) with 82 mL Malachite Green/H2SO4-solution (0.7 g Malachite Green to 1000 mL of 10% (v/v) H2SO4).
(§2) All compounds were tested in triplicate at 10 different concentrations. Control compound (0, 50 and 100% effect) was included on each plate. […] Curve fitting was done using the following equation: y=(A+((B−A)/(1+((x/C)̂D)))) where A and B represents the curve bottom (% inhibition) and the total amplitude (% inhibition), respectively, whereas C and D are the apparent IC50 and curve slope, respectively.

[2] = target: Human recombinant Acetyl-CoA Carboxylase 1 (ACC1) (Homo sapiens, UniProt Q13085); test: Assay X: ACC1 inhibition, inorganic phosphate (malachite green); format: biochemical; settings: Assay X: 37° C., 1.5 h, 5 min pre-incubation
Method: as §1, §2

Sequence of Human recombinant Acetyl-CoA Carboxylase 2 (ACC2) (O00763 whole entry): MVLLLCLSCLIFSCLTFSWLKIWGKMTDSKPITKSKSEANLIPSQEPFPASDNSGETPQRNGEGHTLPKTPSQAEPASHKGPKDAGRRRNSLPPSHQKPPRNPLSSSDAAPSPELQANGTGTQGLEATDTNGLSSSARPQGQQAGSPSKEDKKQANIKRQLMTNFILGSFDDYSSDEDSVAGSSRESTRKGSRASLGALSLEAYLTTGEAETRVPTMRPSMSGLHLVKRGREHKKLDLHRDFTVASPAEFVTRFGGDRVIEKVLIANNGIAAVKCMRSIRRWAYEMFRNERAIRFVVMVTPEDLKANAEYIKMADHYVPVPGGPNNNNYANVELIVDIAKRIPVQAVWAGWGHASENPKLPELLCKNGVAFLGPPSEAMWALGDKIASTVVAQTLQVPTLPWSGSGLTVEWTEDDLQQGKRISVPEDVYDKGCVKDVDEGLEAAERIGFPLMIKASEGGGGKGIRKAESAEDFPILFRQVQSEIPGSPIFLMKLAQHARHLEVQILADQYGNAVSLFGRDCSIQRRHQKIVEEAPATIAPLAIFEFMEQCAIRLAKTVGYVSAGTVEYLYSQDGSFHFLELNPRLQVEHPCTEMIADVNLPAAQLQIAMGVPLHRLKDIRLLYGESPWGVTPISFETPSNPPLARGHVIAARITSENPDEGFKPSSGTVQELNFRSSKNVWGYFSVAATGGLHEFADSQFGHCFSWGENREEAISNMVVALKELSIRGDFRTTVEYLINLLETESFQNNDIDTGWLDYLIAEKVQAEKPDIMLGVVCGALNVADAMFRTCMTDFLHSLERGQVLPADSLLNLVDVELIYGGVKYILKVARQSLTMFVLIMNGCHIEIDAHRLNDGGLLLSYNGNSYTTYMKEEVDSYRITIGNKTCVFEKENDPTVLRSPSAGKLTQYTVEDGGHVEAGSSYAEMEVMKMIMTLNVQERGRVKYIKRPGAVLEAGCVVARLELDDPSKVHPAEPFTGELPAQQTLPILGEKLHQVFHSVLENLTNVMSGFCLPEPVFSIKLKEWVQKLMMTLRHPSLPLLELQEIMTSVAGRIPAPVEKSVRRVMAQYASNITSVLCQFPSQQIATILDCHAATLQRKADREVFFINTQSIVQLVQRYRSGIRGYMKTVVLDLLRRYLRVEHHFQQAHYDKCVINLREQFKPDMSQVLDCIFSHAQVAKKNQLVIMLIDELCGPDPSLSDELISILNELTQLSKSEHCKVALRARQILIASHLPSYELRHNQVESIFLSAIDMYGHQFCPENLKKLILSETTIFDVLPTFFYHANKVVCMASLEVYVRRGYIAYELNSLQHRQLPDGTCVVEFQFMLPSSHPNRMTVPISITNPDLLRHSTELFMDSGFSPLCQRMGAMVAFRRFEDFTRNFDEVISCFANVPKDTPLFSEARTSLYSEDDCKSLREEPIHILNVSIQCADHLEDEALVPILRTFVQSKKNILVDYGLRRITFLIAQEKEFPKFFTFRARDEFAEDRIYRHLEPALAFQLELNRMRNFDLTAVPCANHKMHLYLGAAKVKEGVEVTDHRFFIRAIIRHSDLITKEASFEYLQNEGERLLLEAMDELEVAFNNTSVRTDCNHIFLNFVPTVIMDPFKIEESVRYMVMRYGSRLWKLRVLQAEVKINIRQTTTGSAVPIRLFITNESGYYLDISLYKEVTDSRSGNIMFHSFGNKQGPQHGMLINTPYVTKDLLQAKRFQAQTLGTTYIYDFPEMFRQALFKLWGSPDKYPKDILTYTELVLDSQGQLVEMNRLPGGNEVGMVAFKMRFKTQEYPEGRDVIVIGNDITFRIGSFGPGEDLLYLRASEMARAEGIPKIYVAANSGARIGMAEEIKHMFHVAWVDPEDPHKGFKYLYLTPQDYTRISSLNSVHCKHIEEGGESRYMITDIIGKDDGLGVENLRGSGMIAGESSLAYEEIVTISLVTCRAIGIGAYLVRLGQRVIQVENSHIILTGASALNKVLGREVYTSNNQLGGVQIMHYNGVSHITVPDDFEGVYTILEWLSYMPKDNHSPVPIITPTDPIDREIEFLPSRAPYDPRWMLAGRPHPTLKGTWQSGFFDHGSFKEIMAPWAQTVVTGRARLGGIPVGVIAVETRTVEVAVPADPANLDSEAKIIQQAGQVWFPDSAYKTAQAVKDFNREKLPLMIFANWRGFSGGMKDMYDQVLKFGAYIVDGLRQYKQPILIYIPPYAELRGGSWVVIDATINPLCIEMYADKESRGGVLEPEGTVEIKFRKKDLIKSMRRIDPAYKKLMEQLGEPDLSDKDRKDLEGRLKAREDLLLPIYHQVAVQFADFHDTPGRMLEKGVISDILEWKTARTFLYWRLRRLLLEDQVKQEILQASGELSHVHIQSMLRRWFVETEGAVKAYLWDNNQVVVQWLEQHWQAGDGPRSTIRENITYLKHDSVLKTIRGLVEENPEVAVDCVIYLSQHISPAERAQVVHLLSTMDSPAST

Structure (SMILES) | pIC50 [1] | pIC50 [2]
CC(CNc1ccc(-c2cc(C(=O)NC[C@H]3CC[C@H](CNC(=O)OC(C)(C)C)CC3)c3ccccc3n2)cn1)C(=O)O (relative stereo) [Example 158, 3-{[5-(4-{[(trans-4-{[(tert-Butoxycarbonyl)amino]methyl}cyclohexyl)methyl]-carbamoyl}quinolin-2-yl)pyridin-2-yl]amino}-2-methyl-propanoic acid] | 5.91 | 5.41
CC(C)(C)OC(=O)NC[C@H]1CC[C@H](CNC(=O)c2cc(-c3ccc(NCC(O)CO)nc3)nc3ccccc23)CC1 (relative stereo) [Example 162, tert-Butyl{[trans-4-({[(2-{6-[(2,3-dihydroxypropyl)amino]pyridin-3-yl}quinolin-4-yl)carbonyl]amino}-methyl)cyclohexyl]-methyl}carbamate] | 6.43 | 6.06
CC(C)(C)OC(=O)NC[C@H]1CC[C@H](CNC(=O)c2cc(-c3ccc(N4CCOC(CO)C4)nc3)nc3ccccc23)CC1 (relative stereo) [Example 171, tert-Butyl{[trans-4-({[(2-{6-[2-(hydroxymethyl)morpholin-4-yl]-pyridin-3-yl}quinolin-4-yl)carbonyl]amino}-methyl)cyclohexyl]-methyl}carbamate] | 6.85 | 6.54
CC(O)C(C)Oc1ccc(-c2cc(C(=O)NC[C@H]3CC[C@H](CNC(=O)OC(C)(C)C)CC3)c3ccccc3n2)cn1 (relative stereo) [Example 176, tert-Butyl[(trans-4-{[({2-[6-(2-hydroxy-1-methylpropoxy)-pyridin-3-yl]-quinolin-4-yl}-carbonyl)amino]-methyl}cyclohexyl)methyl]carbamate] | 5.98 | 5.52
CC(C)(C)OC(=O)NC[C@H]1CC[C@H](CNC(=O)c2cc(N3CCC(CC(O)CN4CCOCC4)CC3)nc3ccccc23)CC1 (relative stereo) [Example 207, tert-Butyl[(trans-4-{[({2-[4-(2-hydroxy-3-morpholin-4-ylpropyl)piperidin-1-yl]quinolin-4-yl}-carbonyl)amino]methyl}cyclohexyl)methyl]-carbamate] | 6.89 | 5.98
CC(C)(C)OC(=O)NC[C@H]1CC[C@H](CNC(=O)c2cc(N3CCC(CC(O)CN4CCOCC4)CC3)nc3ccccc23)CC1 (single isomer, unassigned) [Example 208, (R) or (S) tert-Butyl [(trans-4-{[({2-[4-(2-hydroxy-3-morpholin-4-ylpropyl)piperidin-1-yl]quinolin-4-yl}-carbonyl)amino]methyl}cyclohexyl)methyl]-carbamate] | 6.77 | 5.96
CC(=O)NCCOC(=O)NC[C@H]1CC[C@H](CNC(=O)c2cc(-c3ccc(N4CCN(C)CC4)nc3)nc3ccccc23)CC1 [Example 122, 2-Acetamidoethyl[(trans-4-{[({2-[6-(4-methylpiperazin-1-yl)pyridin-3-yl]quinolin-4-yl}carbonyl)amino]methyl}cyclohexyl)methyl]carbamate] | 5.73 | 5.09
CN1CCN(c2ccc(-c3cc(C(=O)NC[C@H]4CC[C@H](CNC(=O)OCCn5cccn5)CC4)c4ccccc4n3)cn2)CC1 [Example 129, 2-(1H-Pyrazol-1-yl)ethyl-[(trans-4-{[({2-[6-(4-methylpiperazin-1-yl)pyridin-3-yl]quinolin-4-yl}carbonyl)amino]methyl}cyclohexyl)methyl]carbamate] | 5.61 | 5.10
CN1CCN(c2ccc(-c3cc(C(=O)NC[C@H]4CC[C@H](CNC(=O)OCc5nccs5)CC4)c4ccccc4n3)cn2)CC1 [Example 130, 1,3-Thiazol-2-ylmethyl-[(trans-4-{[({2-[6-(4-methylpiperazin-1-yl)pyridin-3-yl]quinolin-4-yl}carbonyl)amino]methyl}cyclohexyl)methyl]carbamate] | 6.36 | 5.71
CN1CCN(c2ccc(-c3cc(C(=O)NC[C@H]4CC[C@H](CNC(=O)OCc5cnccn5)CC4)c4ccccc4n3)cn2)CC1 [Example 131, Pyrazin-2-ylmethyl-[(trans-4-{[({2-[6-(4-methylpiperazin-1-yl)pyridin-3-yl]quinolin-4-yl}carbonyl)amino]methyl}cyclohexyl)methyl]carbamate] | 5.80 | 5.28
CN1CCN(c2ccc(-c3cc(C(=O)NC[C@H]4CC[C@H](CNC(=O)OCCC#N)CC4)c4ccccc4n3)cn2)CC1 [Example 132, 2-Cyanoethyl[(trans-4-{[({2-[6-(4-methylpiperazin-1-yl)pyridin-3-yl]quinolin-4-yl}carbonyl)amino]methyl}cyclohexyl)methyl]carbamate] | 5.73 | 5.24
CC(C)(C)OC(=O)NC[C@H]1CC[C@H](CNC(=O)c2cc(-c3ccc(NCCCO)nc3)nc3ccccc23)CC1 [Example 150, tert-Butyl{[trans-4-({[(2-{6-[(3-hydroxypropyl)amino]pyridin-3-yl}quinolin-4-yl)carbonyl]amino}-methyl)cyclohexyl]methyl}carbamate] | 6.89 | 6.46
CC(C)(C)OC(=O)NC[C@H]1CC[C@H](CNC(=O)c2cc(-c3ccc(N(CCO)CCO)nc3)nc3ccccc23)CC1 [Example 152, tert-Butyl{[trans-4-({[(2-{6-[bis(2-hydroxyethyl)amino]pyridin-3-yl}quinolin-4-yl)carbonyl]amino}-methyl)cyclohexyl]methyl}carbamate] | 6.77 | 6.32

Further molecules by rising pIC50 [1], results first:

pIC50 [1] | pIC50 [2] | Structure (SMILES)
5.86 | 5.32 | CC(C#N)OC(=O)NC[C@H]1CC[C@H](CNC(=O)c2cc(-c3ccc(N4CCN(C)CC4)nc3)nc3ccccc23)CC1 (stereo partly drawn) [Example 121, 1-Cyanoethyl[(trans-4-{[({2-[6-(4-methylpiperazin-1-yl)pyridin-3-yl]quinolin-4-yl}carbonyl)amino]methyl}cyclohexyl)methyl]carbamate]
6.06 | 5.42 | CN1CCN(c2ccc(-c3cc(C(=O)NC[C@H]4CC[C@H](CNC(=O)OCC5CCCO5)CC4)c4ccccc4n3)cn2)CC1 (stereo partly drawn) [Example 127, Tetrahydrofuran-2-ylmethyl[(trans-4-{[({2-[6-(4-methylpiperazin-1-yl)pyridin-3-yl]quinolin-4-yl}carbonyl)amino]methyl}cyclohexyl)methyl]carbamate]
6.38 | 5.78 | CN1CCN(c2ccc(-c3cc(C(=O)NC[C@H]4CC[C@H](CNC(=O)OCC5CCOC5)CC4)c4ccccc4n3)cn2)CC1 (stereo partly drawn) [Example 126, Tetrahydrofuran-3-ylmethyl[(trans-4-{[({2-[6-(4-methylpiperazin-1-yl)pyridin-3-yl]quinolin-4-yl}carbonyl)amino]methyl}cyclohexyl)methyl]carbamate]
6.80 | 5.88 | CC(C)(C)OC(=O)NC[C@H]1CC[C@H](CNC(=O)c2cc(N3CCC(CCN4CCC(O)C4)CC3)nc3ccccc23)CC1 (relative stereo) [Example 230, tert-Butyl{[trans-4-({[(2-{4-[2-(3-hydroxypyrrolidin-1-yl)ethyl]piperidin-1-yl}quinolin-4-yl)carbonyl]amino}-methyl)cyclohexyl]-methyl}carbamate]
6.80 | 6.21 | CC(C)(C)OC(=O)NC[C@H]1CC[C@H](CNC(=O)c2cc(-c3ccc(N4CCC(O)CC4)nc3)nc3ccccc23)CC1 [Example 151, tert-Butyl[(trans-4-{[({2-[6-(4-hydroxypiperidin-1-yl)pyridin-3-yl]-quinolin-4-yl}-carbonyl)amino]methyl}cyclohexyl)methyl]carbamate]
6.89 | 6.01 | CC(C)(C)OC(=O)NC[C@H]1CC[C@H](CNC(=O)c2cc(N3CCC(CC(O)CN4CCCC4)CC3)nc3ccccc23)CC1 (relative stereo) [Example 206, tert-butyl [(trans-4-{[({2-[4-(2-hydroxy-3-pyrrolidin-1-ylpropyl)piperidin-1-yl]quinolin-4-yl}carbonyl)amino]methyl}cyclohexyl)methyl]carbamate]
6.89 | 6.64 | CC(C)(C)OC(=O)NC[C@H]1CC[C@H](CNC(=O)c2cc(-c3ccc(N4CCC(C(N)=O)CC4)nc3)nc3ccccc23)CC1 [Example 153, tert-Butyl[(trans-4-{[({2-[6-(4-carbamoylpiperidin-1-yl)pyridin-3-yl]-quinolin-4-yl}carbonyl)amino]-methyl}cyclohexyl)methyl]carbamate]
6.96 | 6.11 | CC(C)(C)OC(=O)NC[C@H]1CC[C@H](CNC(=O)c2cc(N3CCC(CC(O)CN4CCCC4)CC3)nc3ccccc23)CC1 (single isomer, unassigned) [Example 209, (S) or (R) tert-Butyl [(trans-4-{[({2-[4-(2-hydroxy-3-pyrrolidin-1-ylpropyl)-piperidin-1-yl]quinolin-4-yl}carbonyl)amino]-methyl}cyclohexyl)methyl]carbamate]
7.30 | 6.72 | CC(C)(C)OC(=O)NC[C@H]1CC[C@H](CNC(=O)c2cc(-c3ccc(N4CCNCC4)nc3)nc3ccccc23)CC1 [Example 154, tert-Butyl({trans-4-[({[2-(6-piperazin-1-ylpyridin-3-yl)-quinolin-4-yl]-carbonyl}amino)methyl]cyclohexyl}methyl)carbamate]

Source: patent US20090306133A1, “New Acetyl Coenzyme A Carboxylase (ACC) Inhibitors And Uses In Treatments Of Obesity And Diabetes Mellitus - 087” (ASTRAZENECA AB, priority 2007, published 2009)
